Experimental data as given in article PMC11078746 (Nature, 2024).
Where “and” joins values, the source holds several entries; their conditions need not be identical. Identical values can stand only once.

Columns and labels:
SW48 xenografts = assay: SW48 cell-derived xenograft efficacy, HRO761 orally once daily; format: in vivo, mouse
Protocol: All animal studies were conducted in accordance with ethics and procedures covered by permit BS-2275 and BS-1975 issued by the Kantonales Veterinäramt Basel-Stadt and in strict adherence to guidelines of the Eidgenössisches Tierschutzgesetz and the Eidgenössische Tierschutzverordnung, Switzerland. All animal studies were approved by the internal ethics committee. All animals had access to food and water ad libitum and were identified with transponders. They were housed in a specific-pathogen-free facility in IVC racks under a 12 h–12 h light–dark cycle. To establish cell-line-derived xenograft models, 6–7-week-old female athymic nude (Crl:NU(NCr)-Foxn1^nu) or SCID-BEIGE (CB17.Cg-PrkdcscidLystbg-J/Crl) mice from Charles River were engrafted subcutaneously with 5 million tumour cells in HBSS (H6648, Sigma-Aldrich). For SNU-407, Lovo, IM95, RL95.2, Ishikawa and IGROV-1, the cells were concentrated in 50% Matrigel (354234, Corning). Patient-derived xenografts were induced and expanded by transplantation as previously described. […] For the efficacy experiment, mice were randomized into groups (n = 5–6) for a mean tumour size of 100–150 mm^3. […] Blood samples were collected on day 7 and 91. […] Tumour responses are reported with the measures of tumour volumes from the treatment start. […] Animals were randomized (n = 3) and tumour samples were collected at 0, 1, 4, 8 and 24 h on the first day and then collected 4 h after the last treatment on day 3, 8, 10, 14 (including a 24 h timepoint), 17 and 21. Tumours were excised, weighed, either frozen in liquid nitrogen and cryogenic dry pulverized with the CryoPrep system (model CP-02, Covaris) or processed to FFPE after fixation. […] On day 12, blood samples were collected for PK analysis. On the last day (3 h after the last treatment), tumours were excised, weighed, frozen in liquid nitrogen and cryogenic dry pulverized for PD analysis.

MSI cancer cells = assay: Clonogenic assay, 10-to-14-day; format: cell-based; details: Homo sapiens, 10-to-14-day clonogenic assay

CCc1c(N2CCN(C(=O)c3ncnc(C)c3O)CC2)c(=O)n2nc(C3=CCOCC3)nc2n1CC(=O)Nc1ccc(C(F)(F)F)cc1Cl [HRO761]
Mean TVol (SW48 xenografts; HRO761 60mg/kg, day 14 post 1st dose): 143.74 mm3
TVol, individual mouse (SW48 xenografts; HRO761 60mg/kg, day 14 post 1st dose, 60 mg/kg): 168.86 mm3 and 112.65 mm3 and 68.51 mm3 and 225.46 mm3 and 143.2 mm3
Mean TVol (SW48 xenografts; HRO761 60mg/kg, day 17 post 1st dose): 92.17 mm3
TVol, individual mouse (SW48 xenografts; HRO761 60mg/kg, day 17 post 1st dose, 60 mg/kg): 122.04 mm3 and 68.7 mm3 and 47.51 mm3 and 127.77 mm3 and 94.82 mm3
Mean TVol (SW48 xenografts; HRO761 60mg/kg, day 21 post 1st dose): 94.01 mm3
TVol, individual mouse (SW48 xenografts; HRO761 60mg/kg, day 21 post 1st dose, 60 mg/kg): 102.4 mm3 and 77.05 mm3 and 73.43 mm3 and 131.39 mm3 and 85.79 mm3
Mean TVol (SW48 xenografts; HRO761 60mg/kg, day 24 post 1st dose): 58.88 mm3
TVol, individual mouse (SW48 xenografts; HRO761 60mg/kg, day 24 post 1st dose, 60 mg/kg): 71.44 mm3 and 52.46 mm3 and 38.57 mm3 and 82.39 mm3 and 49.52 mm3
Mean TVol (SW48 xenografts; HRO761 60mg/kg, day 28 post 1st dose): 51.50 mm3
TVol, individual mouse (SW48 xenografts; HRO761 60mg/kg, day 28 post 1st dose, 60 mg/kg): 56.2 mm3 and 60.49 mm3 and 22.48 mm3 and 76.24 mm3 and 42.11 mm3
Mean TVol (SW48 xenografts; HRO761 60mg/kg, day 31 post 1st dose): 37.85 mm3
Mean TVol (SW48 xenografts; HRO761 60mg/kg, day 35 post 1st dose): 35.63 mm3
Mean TVol (SW48 xenografts; HRO761 60mg/kg, day 38 post 1st dose): 32.12 mm3
Mean TVol (SW48 xenografts; HRO761 60mg/kg, day 42 post 1st dose): 26.69 mm3
Mean TVol (SW48 xenografts; HRO761 60mg/kg, day 45 post 1st dose): 28.41 mm3
Mean TVol (SW48 xenografts; HRO761 60mg/kg, day 49 post 1st dose): 28.59 mm3
Mean TVol (SW48 xenografts; HRO761 60mg/kg, day 52 post 1st dose): 39.66 mm3
Mean TVol (SW48 xenografts; HRO761 60mg/kg, day 56 post 1st dose): 41.29 mm3
Mean TVol (SW48 xenografts; HRO761 60mg/kg, day 59 post 1st dose): 58.21 mm3
Mean TVol (SW48 xenografts; HRO761 60mg/kg, day 63 post 1st dose): 63.07 mm3
Mean TVol (SW48 xenografts; HRO761 60mg/kg, day 66 post 1st dose): 73.43 mm3
Mean TVol (SW48 xenografts; HRO761 60mg/kg, day 70 post 1st dose): 92.32 mm3
Mean TVol (SW48 xenografts; HRO761 60mg/kg, day 73 post 1st dose): 100.10 mm3
Mean TVol (SW48 xenografts; HRO761 60mg/kg, day 76 post 1st dose): 118.12 mm3
Mean TVol (SW48 xenografts; HRO761 60mg/kg, day 79 post 1st dose): 144.54 mm3
Mean TVol (SW48 xenografts; HRO761 60mg/kg, day 83 post 1st dose): 167.90 mm3
Mean TVol (SW48 xenografts; HRO761 60mg/kg, day 86 post 1st dose): 197.43 mm3
Mean TVol (SW48 xenografts; HRO761 60mg/kg, day 90 post 1st dose): 250.29 mm3
Mean TVol (SW48 xenografts; HRO761 60mg/kg, day 92 post 1st dose): 257.93 mm3
Mean TVol (SW48 xenografts; HRO761 120mg/kg, day 0 post 1st dose): 148.61 mm3
Mean TVol (SW48 xenografts; HRO761 120mg/kg, day 3 post 1st dose): 165.08 mm3
Mean TVol (SW48 xenografts; HRO761 120mg/kg, day 7 post 1st dose): 155.01 mm3
Mean TVol (SW48 xenografts; HRO761 120mg/kg, day 10 post 1st dose): 143.90 mm3
Mean TVol (SW48 xenografts; HRO761 120mg/kg, day 14 post 1st dose): 109.57 mm3
TVol, individual mouse (SW48 xenografts; HRO761 120mg/kg, day 14 post 1st dose, 120 mg/kg): 89.55 mm3 and 116.21 mm3 and 96.68 mm3 and 110.56 mm3 and 134.85 mm3
Mean TVol (SW48 xenografts; HRO761 120mg/kg, day 17 post 1st dose): 76.89 mm3
TVol, individual mouse (SW48 xenografts; HRO761 120mg/kg, day 17 post 1st dose, 120 mg/kg): 65.99 mm3 and 76.61 mm3 and 69.65 mm3 and 76.31 mm3 and 95.9 mm3
Mean TVol (SW48 xenografts; HRO761 120mg/kg, day 21 post 1st dose): 60.65 mm3
TVol, individual mouse (SW48 xenografts; HRO761 120mg/kg, day 21 post 1st dose, 120 mg/kg): 36.03 mm3 and 67.66 mm3 and 49.83 mm3 and 57.7 mm3 and 92.01 mm3
Mean TVol (SW48 xenografts; HRO761 120mg/kg, day 24 post 1st dose): 40.88 mm3
TVol, individual mouse (SW48 xenografts; HRO761 120mg/kg, day 24 post 1st dose, 120 mg/kg): 38.27 mm3 and 45.09 mm3 and 38.11 mm3 and 31.94 mm3 and 50.97 mm3
Mean TVol (SW48 xenografts; HRO761 120mg/kg, day 28 post 1st dose): 35.35 mm3
TVol, individual mouse (SW48 xenografts; HRO761 120mg/kg, day 28 post 1st dose, 120 mg/kg): 32.65 mm3 and 37.62 mm3 and 34.55 mm3 and 23.01 mm3 and 48.93 mm3
Mean TVol (SW48 xenografts; HRO761 120mg/kg, day 31 post 1st dose): 23.02 mm3
Mean TVol (SW48 xenografts; HRO761 120mg/kg, day 35 post 1st dose): 18.60 mm3
Mean TVol (SW48 xenografts; HRO761 120mg/kg, day 38 post 1st dose): 15.04 mm3
Mean TVol (SW48 xenografts; HRO761 120mg/kg, day 42 post 1st dose): 15.24 mm3
Mean TVol (SW48 xenografts; HRO761 120mg/kg, day 45 post 1st dose): 22.14 mm3
Mean TVol (SW48 xenografts; HRO761 120mg/kg, day 49 post 1st dose): 17.54 mm3
Mean TVol (SW48 xenografts; HRO761 120mg/kg, day 52 post 1st dose): 14.62 mm3
Mean TVol (SW48 xenografts; HRO761 120mg/kg, day 56 post 1st dose): 23.36 mm3
Mean TVol (SW48 xenografts; HRO761 120mg/kg, day 59 post 1st dose): 24.12 mm3
Mean TVol (SW48 xenografts; HRO761 120mg/kg, day 63 post 1st dose): 25.71 mm3
Mean TVol (SW48 xenografts; HRO761 120mg/kg, day 66 post 1st dose): 34.04 mm3
Mean TVol (SW48 xenografts; HRO761 120mg/kg, day 70 post 1st dose): 39.42 mm3
Mean TVol (SW48 xenografts; HRO761 120mg/kg, day 73 post 1st dose): 45.77 mm3
Mean TVol (SW48 xenografts; HRO761 120mg/kg, day 76 post 1st dose): 45.68 mm3
Mean TVol (SW48 xenografts; HRO761 120mg/kg, day 79 post 1st dose): 54.31 mm3
Mean TVol (SW48 xenografts; HRO761 120mg/kg, day 83 post 1st dose): 66.91 mm3
Mean TVol (SW48 xenografts; HRO761 120mg/kg, day 86 post 1st dose): 85.46 mm3
Mean TVol (SW48 xenografts; HRO761 120mg/kg, day 90 post 1st dose): 91.43 mm3
Mean TVol (SW48 xenografts; HRO761 120mg/kg, day 92 post 1st dose): 94.97 mm3
Best average response (SW48 xenografts; SW48, colorectal carcinoma, 60 or 120 mg/kg): -90
tumour regressions (SW48 xenografts; higher doses than 20 mg per kg, once daily oral, up to 60 days): 75–90%
GI50 (MSI cancer cells): 50 to 1000 nM
